Results: US7495105B2, “Non-racemic mixtures of (S) and (R) enantiomers of N-(2,6-dimethylphenyl)-1-propyl-2-piperidinocarboxamide; related processes and pharmaceutical compositions” (Cristalia Produtos Quimicos Farmaceuticos Ltda., priority 2001, dated 2009)
Marks after values point to notes of the source that are not given here.

What was measured:
[1] = tested on: Muscular Activity of the Gastrocnemic Muscle of the Rat; assay: Study in motor nervous conduction: gastrocnemius muscle shocks induced by electrical stimulation of the sciatic nerve; format: in vivo; details: for IC50 (%) - concentration that inhibits 50% of the amplitude of muscular shocks: 0.1 ml applied to sciatic nerve, stimulation 0.2 Hz, anesthetized Wistar rats; for Power relative to S (−) ropivacaine: from IC50 of gastrocnemic muscle shocks
Protocol: Wistar male rats, weighing from 180 up to 250 g were under anesthesia with sodium pentobarbital (50 mg.kg^1) via i.p. After being submitted to tracheotomy and mechanically ventilated (Harvad Apparatus mod. 681), the animals were positioned on a surgical table (C. F. Palmer), on ventral decubital, and the four paws were fixed onto the surgical table. In the posterior face and near the back paw, the sciatic nerve was carefully dissected on both paws. A pair of platinum electrodes was fixed on the portion near the nerve and connected to a stimulator Grass mod.S88. Thereafter, the Achilles tendon was isolated and fixed to the isometric tension transducer (Grass FT03) by means of a metallic rod. […] 7). The body temperature was constant during the experiment. After stabilization of the preparation, the muscular shocks were registered in the absence (salty) and in the presence of increasing doses of LAs added in the proximity of the nerve. For each test, the anesthetic that socked the nerve was of 0.1 ml. The solutions were solved in physiologic serum at 0.9%, currently the experiment is maintained at 37° C. temperature.
Particularly, in this register, ropivacaine (S(−)ropi) and the non-racemic mixture (25R:75S) were administered in the perineural region. It should be noted the difference in the power and speed action between the anesthetic. In this figure, gastrocnemic shocks of the muscle were induced by electrical stimulation of the sciatic nerve. The segment of this nerve situated in the distal portion to the stimulation electrodes was soaked with 0.1 ml ropivacaine or with the non-racemic mixture of ropivacaine […] in the concentration of 0.06%. The reduction of the amplitude of the muscular shocks is a function of the number of nervous motor fibers under effective action of the anesthetics.
The concentration that inhibits 50% of the amplitude of muscular shocks (IC50) seeks is used for comparative purposes of the power between anesthetics.

[2] = tested on: isolated heart of the rat; assay: Effects in the electrical activity (ECG) in isolated heart of the rat (Langendorff modified); details: for cardiac toxicity (cardiotoxicity) in relation to ropivacaine: conclusion from isolated rat heart
Text: In the experiments “in vitro”, adult male Wistar rats were used, weighing from 200 up to 350 g. The animals were slaughtered under anesthesia with ethyl ether. Thereafter, the heart was quickly removed and immersed, at room temperature, on Tyrode solution, composed in mM: NaCl, 120; KCl, 5.4; MgCl2, 1.2; CaCl2, 1.25; NaH2PO4, 2.0; NaHCO3, 27; Glucose, 11. The pH of this solution was adjusted to 7.4±0.02, under bubbling with carbogenic mixture (95% of O2 and 5% of CO2).
The heart was fixed, through the aorta, to a metallic tube and the latter was connected to a peristaltic pump (Milan^R). In order to maintain the feasibility of the preparation, the heart was perfused with a Tyrode solution at a flow of 8 ml.min^−1 maintained at 37° C. The drugs tested were diluted in the perfusion solution in the desired concentration. Thereafter, the heart was immersed in a recipient containing 150 ml of Tyrode solution maintained at 37° C. For registration of the ECG, three pipettes (electrodes), filled in with KCl 1M were positioned inside the chamber, the nearest possible to the heart. The electrical signals generated by the heart were amplified (Amplifier type 3A9) and registered in polygraph (Gould Brush mod.2400). After stabilization of the preparation, the experimental protocol with the infusion of ALs in crescent concentrations (0.1 a 10 μM), at intervals of 5 minutes between them, was started. The heart was perfused during 5 minutes for each concentration. Only one drug was tested for each heart.
The ECG was continuously registered in the absence (control) and in the presence of drugs for analysis. After the infusion of the last concentration, the preparation was washed during 30 minutes with the Tyrode solution without the AL, aiming to evaluate the reversibility of the effect of the drug.

[3] = spinal anesthesia; Gautier et al. 1999; cited from earlier work
[4] = 0.1 to 10 μM, 6 experiments, FIG. 4

SMILES | IC50 (%) - concentration that inhibits 50% of the amplitude of muscular shocks [1] | Power relative to S (−) ropivacaine [1] | power (motor blocking) greater in comparison with ropivacaine ([1]; motor blocking, versus pure ropivacaine) | effect on CF (cardiac frequency) [2, 4] | effect on PR interval [2, 4] | cardiac toxicity (cardiotoxicity) in relation to ropivacaine [2] | effect on ECG of isolated heart ([2]; perfusion with 1 μM) | less potent than racemic bupivacaine [3] | effect on PR interval ([2]; even in the concentration of 10 μM)
CCCN1CCCCC1C(=O)Nc1c(C)cccc1C (racemic) [RS (±) Ropi, (R,S)-N-(2,6-dimethylphenyl)-1-propyl-2-piperidinocarboxamide] | 0.036* % | 1.94* | ~90% | greater depressors effect of CF | increase in PR interval | significantly higher cardiotoxicity | – | – | –
CCCN1CCCC[C@@H]1C(=O)Nc1c(C)cccc1C [R (+) Ropi, (R)-N-(2,6-dimethylphenyl)-1-propyl-2-piperidinocarboxamide] | 0.043* % | 1.63* | – | greater depressors effect of CF | increase in PR interval | significantly higher cardiotoxicity | important blocking of the cardiac vessel | – | –
CCCN1CCCC[C@H]1C(=O)Nc1c(C)cccc1C [S (−) Ropi, (S)-N-(2,6-dimethylphenyl)-1-propyl-2-piperidinocarboxamide] | 0.070% | 1.0 | – | – | – | – | – | about 50% | do not alter the PR interval
